The source of these data is patent US5420106A, “Method and composition having enhanced alpha-hydroxy acid skin permeation and retention” (priority 1994, dated 1995).

For series [1] the following is noted: hydrated skin; cited from earlier work.
The conditions of series [2]: in vivo; cited from earlier work.
Series [3] can be described thus: Skin retention of lactic acid (epidermis and dermis analysis after the permeation study). It counts as in vitro ADME. The procedure: (§1) Franz Diffusion Cell Study at Finite Dose
(§2) For each formulation, skin sections were mounted on three or four flat flange Franz diffusion cells (FDC 400) with a diffusional cross-section area of 1.2cm^2. About 60 to 100 mg of test formulation were placed on the stratum corneum surface of the skin in the donor compartment and the receptor compartment was filled with about 11 ml of normal saline. The receptor fluid was well stirred throughout the experiment and the temperature was maintained by circulating water at 37° C. through the water jacket of the diffusion cells. Precisely 500 μl of receptor fluid was collected in a scintillation vial at appropriate intervals for a period of 68 hours. […] The receptor fluid was replenished after each withdrawal. All the receptor fluid and replenished fluids were filtered using a 0.22 μm filter and thoroughly degassed before use.
Cotton swabs were used during the rinsing procedure to recover the remaining surface dose. A circular incision was made in the skin exposed to the formulation. The epidermis at the circular edge was slowly lifted using a pointed flat spatula, and then separated from the dermis using forceps. The epidermis and dermis were transferred to previously weighed teflon tape and dried in a desiccator for 72 hours until a constant weight was obtained. […]

The conditions of series [4]: cited from earlier work.
Series [5] in a line: In-vitro skin permeation study of lactic acid, Franz diffusion cell at finite dose (14C-lactic acid). It counts as in vitro ADME. As for the experimental part: The skin permeation test was conducted by the following procedure:
In-vitro Skin Permeation Study
as §1, §2

Consider `CC(C)NCC(O)COc1cccc2ccccc12` (centres unmarked) [propranolol], for which the “permeation or permeation rate on hydration of skin” value in series [1] is given as “decreases the permeation rate by two fold”.

As for `CC(O)C(=O)O` (centres unmarked) [ammonium lactate], the skin irritation entry in series [2] was “skin irritant to a degree which many patients find unacceptable”. Besides, the “skin retention of lactic acid / α-hydroxy acid (general finding)” value in series [3] is “excellent lactic acid skin permeation and skin retention profiles”. Moreover, the “skin retention of lactic acid” value in series [3] (pH 4.6) was “excellent skin retention”. Besides, the “potency for other dermatological disorders” value in series [4] (U.S. Pat. No. 5,091,171, topical ammonium salts) was “lost most of its potency”. For the same compound, the “effectiveness in treating dermatological disorders” value in series [4] (topical) was “very effective”.

For `CC(C)[C@H](N)C(=O)O` [valine], the “enhancement of skin permeation of lactic acid by valine” value in series [5] is given as “does not enhance skin permeation of lactic acid”.

For the compound `CCCCCCCCCCCCCC(=O)OC(C)C` [IPM, isopropyl myristate], the “skin permeation enhancer effect for lactic acid” value in series [5] (FIGS. 1-2, IPM vs PGD in lysine lactate lotions) was “better skin permeation enhancer for lactic acid than PGD”.
